Reference: ChEMBL document CHEMBL4725279, “Design and synthesis of peptide-based chimeric molecules to induce degradation of the estrogen and androgen receptors” (Bioorg Med Chem, 2020)

How the values were obtained:
Format in all cases: cell-based
[1] = molecular target: T1, von Hippel-Lindau disease tumor suppressor/Androgen receptor (Homo sapiens) (UniProt P10275+P40337); test: Protac activity at VHL/AR in human MCF7 cells assessed as induction of AR protein degradation incubated for 8 to 24 hrs by western blot analysis; details: time hrs 8-24
[2] = molecular target: T2, von Hippel-Lindau disease tumor suppressor/Estrogen receptor (Homo sapiens) (UniProt P03372+P40337); test: Protac activity at VHL/ERalpha in human MCF7 cells assessed as induction of ERalpha protein degradation incubated for 8 to 24 hrs by western blot analysis; details: time hrs 8-24
[3] = molecular target: T1, von Hippel-Lindau disease tumor suppressor/Androgen receptor (Homo sapiens); test: Protac activity at VHL/AR in human MCF7 cells assessed as induction of AR protein degradation by measuring AR protein level at 5 uM incubated for 8 hrs by western blot analysis relative to lamin B
[4] = molecular target: T1, von Hippel-Lindau disease tumor suppressor/Androgen receptor (Homo sapiens); test: Protac activity at VHL/AR in human MCF7 cells assessed as induction of AR protein degradation by measuring AR protein level at 10 uM incubated for 8 hrs by western blot analysis relative to lamin B
[5] = molecular target: T1, von Hippel-Lindau disease tumor suppressor/Androgen receptor (Homo sapiens); test: Protac activity at VHL/AR in human MCF7 cells assessed as induction of AR protein degradation by measuring AR protein level at 20 uM incubated for 8 hrs by western blot analysis relative to lamin B
[6] = molecular target: T2, von Hippel-Lindau disease tumor suppressor/Estrogen receptor (Homo sapiens); test: Protac activity at VHL/ERalpha in human MCF7 cells assessed as induction of ERalpha protein degradation by measuring ERalpha protein level at 5 uM incubated for 8 hrs by western blot analysis relative to lamin B
[7] = molecular target: T2, von Hippel-Lindau disease tumor suppressor/Estrogen receptor (Homo sapiens); test: Protac activity at VHL/ERalpha in human MCF7 cells assessed as induction of ERalpha protein degradation by measuring ERalpha protein level at 10 uM incubated for 8 hrs by western blot analysis relative to lamin B
[8] = molecular target: T2, von Hippel-Lindau disease tumor suppressor/Estrogen receptor (Homo sapiens); test: Protac activity at VHL/ERalpha in human MCF7 cells assessed as induction of ERalpha protein degradation by measuring ERalpha protein level at 20 uM incubated for 8 hrs by western blot analysis relative to lamin B
[9] = molecular target: T1, von Hippel-Lindau disease tumor suppressor/Androgen receptor (Homo sapiens); test: Protac activity at VHL/AR in human MCF7 cells assessed as induction of AR protein degradation by measuring AR protein level at 5 uM incubated for 24 hrs by western blot analysis relative to lamin B
[10] = molecular target: T1, von Hippel-Lindau disease tumor suppressor/Androgen receptor (Homo sapiens); test: Protac activity at VHL/AR in human MCF7 cells assessed as induction of AR protein degradation by measuring AR protein level at 10 uM incubated for 24 hrs by western blot analysis relative to lamin B
[11] = molecular target: T1, von Hippel-Lindau disease tumor suppressor/Androgen receptor (Homo sapiens); test: Protac activity at VHL/AR in human MCF7 cells assessed as induction of AR protein degradation by measuring AR protein level at 20 uM incubated for 24 hrs by western blot analysis relative to lamin B
[12] = molecular target: T2, von Hippel-Lindau disease tumor suppressor/Estrogen receptor (Homo sapiens); test: Protac activity at VHL/ERalpha in human MCF7 cells assessed as induction of ERalpha protein degradation by measuring ERalpha protein level at 5 uM incubated for 24 hrs by western blot analysis relative to lamin B
[13] = molecular target: T2, von Hippel-Lindau disease tumor suppressor/Estrogen receptor (Homo sapiens); test: Protac activity at VHL/ERalpha in human MCF7 cells assessed as induction of ERalpha protein degradation by measuring ERalpha protein level at 10 uM incubated for 24 hrs by western blot analysis relative to lamin B
[14] = molecular target: T2, von Hippel-Lindau disease tumor suppressor/Estrogen receptor (Homo sapiens); test: Protac activity at VHL/ERalpha in human MCF7 cells assessed as induction of ERalpha protein degradation by measuring ERalpha protein level at 20 uM incubated for 24 hrs by western blot analysis relative to lamin B
[15] = molecular target: T3, von Hippel-Lindau disease tumor suppressor/Aryl hydrocarbon receptor (Homo sapiens, UniProt P35869+P40337); test: Protac activity at VHL/AhR in human MCF7 cells assessed as induction of AhR protein degradation by measuring AhR protein level at 5 uM incubated for 8 hrs by western blot analysis relative to lamin B; details: mcf7, 8 h
[16] = molecular target: T3, von Hippel-Lindau disease tumor suppressor/Aryl hydrocarbon receptor; test: Protac activity at VHL/AhR in human MCF7 cells assessed as induction of AhR protein degradation by measuring AhR protein level at 10 uM incubated for 8 hrs by western blot analysis relative to lamin B; details: mcf7, 8 h
[17] = molecular target: T3, von Hippel-Lindau disease tumor suppressor/Aryl hydrocarbon receptor; test: Protac activity at VHL/AhR in human MCF7 cells assessed as induction of AhR protein degradation by measuring AhR protein level at 20 uM incubated for 8 hrs by western blot analysis relative to lamin B; details: mcf7, 8 h
[18] = molecular target: T3, von Hippel-Lindau disease tumor suppressor/Aryl hydrocarbon receptor; test: Protac activity at VHL/AhR in human MCF7 cells assessed as induction of AhR protein degradation by measuring AhR protein level at 5 uM incubated for 24 hrs by western blot analysis relative to lamin B; details: mcf7, 24 h
[19] = molecular target: T3, von Hippel-Lindau disease tumor suppressor/Aryl hydrocarbon receptor; test: Protac activity at VHL/AhR in human MCF7 cells assessed as induction of AhR protein degradation by measuring AhR protein level at 10 uM incubated for 24 hrs by western blot analysis relative to lamin B; details: mcf7, 24 h
[20] = molecular target: T3, von Hippel-Lindau disease tumor suppressor/Aryl hydrocarbon receptor; test: Protac activity at VHL/AhR in human MCF7 cells assessed as induction of AhR protein degradation by measuring AhR protein level at 20 uM incubated for 24 hrs by western blot analysis relative to lamin B; details: mcf7, 24 h
[21] = molecular target: T1, von Hippel-Lindau disease tumor suppressor/Androgen receptor (Homo sapiens); test: Protac activity at VHL/AR in human MCF7 cells assessed as induction of AR protein degradation by measuring AR protein level at 20 uM incubated for 8 hrs in presence of proteasome inhibitor, MG132 by western blot analysis relative to lamin B
[22] = molecular target: T1, von Hippel-Lindau disease tumor suppressor/Androgen receptor (Homo sapiens); test: Protac activity at VHL/AR in human MCF7 cells assessed as induction of AR protein degradation by measuring AR protein level at 20 uM incubated for 8 hrs in presence of ubiquitin activating inhibitor MLN7243 by western blot analysis relative to lamin B
[23] = molecular target: T2, von Hippel-Lindau disease tumor suppressor/Estrogen receptor (Homo sapiens); test: Protac activity at VHL/ERalpha in human MCF7 cells assessed as induction of ERalpha protein degradation by measuring ERalpha protein level at 20 uM incubated for 8 hrs in presence of proteasome inhibitor, MG132 by western blot analysis relative to lamin B
[24] = molecular target: T2, von Hippel-Lindau disease tumor suppressor/Estrogen receptor (Homo sapiens); test: Protac activity at VHL/ERalpha in human MCF7 cells assessed as induction of ERalpha protein degradation by measuring ERalpha protein level at 20 uM incubated for 8 hrs in presence of ubiquitin activating inhibitor MLN7243 by western blot analysis relative to lamin B
[25] = molecular target: T3, von Hippel-Lindau disease tumor suppressor/Aryl hydrocarbon receptor; test: Protac activity at VHL/AhR in human MCF7 cells assessed as induction of AhR protein degradation by measuring AhR protein level at 20 uM incubated for 8 hrs in presence of proteasome inhibitor, MG132 by western blot analysis relative to lamin B; details: mcf7, 8 h
[26] = molecular target: T3, von Hippel-Lindau disease tumor suppressor/Aryl hydrocarbon receptor; test: Protac activity at VHL/AhR in human MCF7 cells assessed as induction of AhR protein degradation by measuring AhR protein level at 20 uM incubated for 8 hrs in presence of ubiquitin activating inhibitor MLN7243 by western blot analysis relative to lamin B; details: mcf7, 8 h
[27] = molecular target: T1, von Hippel-Lindau disease tumor suppressor/Androgen receptor (Homo sapiens); test: Protac activity at VHL/AR in VHL siRNA-transfected human MCF7 cells assessed as induction of AR protein degradation by measuring AR protein level at 20 uM incubated for 8 hrs by western blot analysis relative to lamin B
[28] = molecular target: T2, von Hippel-Lindau disease tumor suppressor/Estrogen receptor (Homo sapiens); test: Protac activity at VHL/ERalpha in VHL siRNA-transfected human MCF7 cells assessed as induction of ERalpha protein degradation by measuring ERalpha protein level at 20 uM incubated for 8 hrs by western blot analysis relative to lamin B

T1 sequence (P10275 whole entry, looked up): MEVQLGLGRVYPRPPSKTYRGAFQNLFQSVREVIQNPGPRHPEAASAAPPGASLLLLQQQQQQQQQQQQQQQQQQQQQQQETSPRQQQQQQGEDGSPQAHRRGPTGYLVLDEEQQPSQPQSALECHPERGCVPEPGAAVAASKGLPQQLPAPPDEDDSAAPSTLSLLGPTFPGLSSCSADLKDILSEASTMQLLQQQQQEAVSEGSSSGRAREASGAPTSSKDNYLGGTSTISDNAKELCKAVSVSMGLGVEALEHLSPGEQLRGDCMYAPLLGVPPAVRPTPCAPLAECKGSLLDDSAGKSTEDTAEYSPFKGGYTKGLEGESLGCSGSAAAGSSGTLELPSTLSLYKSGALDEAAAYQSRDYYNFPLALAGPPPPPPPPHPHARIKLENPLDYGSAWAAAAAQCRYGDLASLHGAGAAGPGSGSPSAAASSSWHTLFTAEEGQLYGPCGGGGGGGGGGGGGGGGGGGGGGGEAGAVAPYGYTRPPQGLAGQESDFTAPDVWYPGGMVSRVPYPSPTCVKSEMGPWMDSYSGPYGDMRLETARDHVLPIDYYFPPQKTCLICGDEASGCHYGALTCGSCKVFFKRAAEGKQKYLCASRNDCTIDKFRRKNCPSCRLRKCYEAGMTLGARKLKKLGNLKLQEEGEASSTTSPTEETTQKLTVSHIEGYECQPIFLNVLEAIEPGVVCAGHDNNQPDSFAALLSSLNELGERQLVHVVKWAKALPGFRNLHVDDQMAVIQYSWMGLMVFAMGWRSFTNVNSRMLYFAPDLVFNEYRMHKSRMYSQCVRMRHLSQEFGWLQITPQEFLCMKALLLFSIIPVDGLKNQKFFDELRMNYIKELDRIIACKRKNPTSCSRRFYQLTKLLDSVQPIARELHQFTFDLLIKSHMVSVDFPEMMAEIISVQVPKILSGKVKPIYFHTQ
T1 sequence (P40337 whole entry, looked up): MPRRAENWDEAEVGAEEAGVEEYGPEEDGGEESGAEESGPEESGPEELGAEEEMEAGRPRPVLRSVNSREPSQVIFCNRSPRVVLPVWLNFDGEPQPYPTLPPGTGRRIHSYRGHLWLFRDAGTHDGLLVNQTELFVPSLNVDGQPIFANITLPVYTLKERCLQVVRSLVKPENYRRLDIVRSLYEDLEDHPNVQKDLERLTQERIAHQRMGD
T3 sequence (P35869 whole entry): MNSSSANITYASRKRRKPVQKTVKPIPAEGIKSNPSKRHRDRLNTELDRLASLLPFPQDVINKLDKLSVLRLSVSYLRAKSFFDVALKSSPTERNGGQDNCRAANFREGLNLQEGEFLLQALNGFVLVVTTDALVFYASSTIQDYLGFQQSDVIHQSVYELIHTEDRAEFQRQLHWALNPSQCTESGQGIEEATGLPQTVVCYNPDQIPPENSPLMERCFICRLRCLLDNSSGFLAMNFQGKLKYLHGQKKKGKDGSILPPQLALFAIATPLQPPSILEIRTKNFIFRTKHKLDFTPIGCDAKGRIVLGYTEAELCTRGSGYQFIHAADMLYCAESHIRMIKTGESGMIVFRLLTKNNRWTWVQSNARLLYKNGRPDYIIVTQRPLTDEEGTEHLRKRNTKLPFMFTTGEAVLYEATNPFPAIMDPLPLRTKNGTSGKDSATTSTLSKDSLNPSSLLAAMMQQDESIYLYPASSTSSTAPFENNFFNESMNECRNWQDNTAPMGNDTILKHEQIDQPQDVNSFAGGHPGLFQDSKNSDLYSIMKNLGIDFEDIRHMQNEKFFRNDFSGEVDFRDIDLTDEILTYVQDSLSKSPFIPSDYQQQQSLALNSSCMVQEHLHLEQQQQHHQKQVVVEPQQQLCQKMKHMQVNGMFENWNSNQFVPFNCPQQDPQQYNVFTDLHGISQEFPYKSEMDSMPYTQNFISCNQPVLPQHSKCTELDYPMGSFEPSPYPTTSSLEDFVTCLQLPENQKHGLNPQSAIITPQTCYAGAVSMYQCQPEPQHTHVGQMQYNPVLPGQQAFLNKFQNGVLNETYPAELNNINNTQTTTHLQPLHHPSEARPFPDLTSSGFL
T3 sequence (P40337 whole entry): as the sequence (P40337 whole entry, looked up) above
T2 sequence (P03372 whole entry, looked up): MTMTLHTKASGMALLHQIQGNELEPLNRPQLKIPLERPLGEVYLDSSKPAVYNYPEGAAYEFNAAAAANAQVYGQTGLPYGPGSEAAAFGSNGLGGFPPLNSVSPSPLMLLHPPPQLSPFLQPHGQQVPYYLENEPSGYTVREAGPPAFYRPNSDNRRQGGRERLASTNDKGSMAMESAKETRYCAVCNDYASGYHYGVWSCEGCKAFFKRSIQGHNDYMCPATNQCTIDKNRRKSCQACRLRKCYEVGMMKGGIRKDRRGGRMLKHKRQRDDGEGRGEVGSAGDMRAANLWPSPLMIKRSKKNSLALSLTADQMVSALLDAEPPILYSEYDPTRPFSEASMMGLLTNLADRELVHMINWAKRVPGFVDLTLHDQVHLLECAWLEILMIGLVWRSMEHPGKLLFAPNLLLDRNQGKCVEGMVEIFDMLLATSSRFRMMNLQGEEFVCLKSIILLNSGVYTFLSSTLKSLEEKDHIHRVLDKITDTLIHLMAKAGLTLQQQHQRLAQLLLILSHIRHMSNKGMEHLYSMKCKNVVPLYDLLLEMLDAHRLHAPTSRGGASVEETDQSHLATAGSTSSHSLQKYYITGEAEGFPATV
T2 sequence (P40337 whole entry, looked up): as the sequence (P40337 whole entry, looked up) above

For CC[C@H](C)[C@@H]1NC(=O)[C@H](NC(=O)[C@@H](N)CCCCNC(=O)CCCCC(=O)NCCOCCOCCOCC(=O)N[C@H](C(=O)N2C[C@H](O)C[C@H]2C(=O)NCc2ccc(-c3scnc3C)cc2)C(C)(C)C)CSSC[C@@H](C(=O)N[C@@H](CCCNC(=N)N)C(=O)N[C@@H](CC(C)(C)C)C(=O)N[C@@H](CC(C)C)C(=O)N[C@@H](CCC(N)=O)C(=O)NCC(=O)NCC(=O)NCC(=O)N[C@@H](CCCNC(=N)N)C(=O)N[C@@H](CCCNC(=N)N)C(=O)N[C@@H](CCCNC(=N)N)C(=O)N[C@@H](CCCNC(=N)N)C(=O)N[C@@H](CCCNC(=N)N)C(=O)N[C@@H](CCCNC(=N)N)C(=O)N[C@@H](CCCNC(=N)N)C(N)=O)NC(=O)[C@H](CC(C)C)NC1=O, the Activity [1] was “Dose-dependent effect”, the Activity [2] was “Dose-dependent effect” and the Activity [3] was 92%. For the same molecule, the Activity [4] was 75%, the Activity [5] was 54% and the Activity [6] was 93%. For the same molecule, the Activity [7] was 84%, the Activity [8] was 64% and the Activity [9] was 97%. The Activity [10] was 103%, the Activity [11] was 90% and the Activity [12] was 86%. For the same molecule, the Activity [13] was 76%, the Activity [14] was 57% and the Activity [15] was 84%. It also gave an Activity [16] of 105%, an Activity [17] of 105% and an Activity [18] of 83%. The Activity [19] was 100%, the Activity [20] was 97% and the Activity [21] was 97%. For the same molecule, the Activity [22] was 102%, the Activity [23] was 92% and the Activity [24] was 108%. The Activity [25] was 113%, the Activity [26] was 101% and the Activity [27] was 98%. It also gave an Activity [28] of 84%.
